Drawing on PubChem BioAssay (NCI), this text covers TGI for seven compounds.

SMILES strings stand for the structures.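 All cell lines were grown in 96-well plates and treated with compound for 48 hours. TGI marks complete inhibition of growth.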

Common to all, as to assay: inhibition of tumour cell growth, NCI panel, 48 h
In assay [1] the test system is MDA-MB-231 breast.
Assay [2] has as its system K-562 leukemia.
Assay [3] has as its system SF-295 CNS.
In assay [4] the test system is SNB-19 CNS.
Assay [5] has as its system SK-MEL-2 melanoma.
For assay [6], the system named is MDA-MB-435.
The test system of assay [7] is NCI/ADR-RES ovarian.
Assay [8] has as its system DU-145 prostate.
For assay [9], the system named is MCF7 breast.
The subject of assay [10] is HT29 colon.
For assay [11], the system named is HCC-2998 colon.
The test system of assay [12] is TK-10 renal.
Assay [13] relates to M14 melanoma.
In assay [14] the test system is A549 NSCLC.
Assay [15] deals with MOLT-4 leukemia.
In assay [16] the test system is SK-MEL-28 melanoma.
Assay [17] deals with EKVX NSCLC.
Assay [18] relates to NCI-H23 lung.
Assay [19] relates to A498 renal.
The subject of assay [20] is HL-60(TB) leukemia.

Regarding `OC1(c2ccc3ccccc3c2)c2ccc3ccccc3c2C2=NCCN21` (stereo not given), the TGI in assay [1], in assay [2], in assay [3], in assay [4], in assay [5] and in [6] was greater than 100 µM in each case. Also, the TGI in [7], in assay [8], in assay [9], in assay [10], in assay [11] and in [12] was greater than 100 µM each time. Also, the TGI in assay [13], in [14], in [15], in assay [16], in [17] and in assay [18] was greater than 100 µM each time. The TGI in assay [19] and in assay [20] was greater than 100 µM throughout.
In the case of `NC(N)=NS(=O)(=O)c1ccc(NNc2c3ccccc3nc3c(C(=O)Nc4ccc(S(N)(=O)=O)cc4)cccc23)cc1`, the TGI is greater than 100 µM in assay [1]; 69.9 µM in assay [2]; greater than 100 µM in [3]; greater than 100 µM in [4]; 46.9 µM in assay [5]; greater than 100 µM in assay [6]. For the same compound, the TGI was greater than 100 µM in assay [7]; greater than 100 µM in assay [8]; 70.5 µM in assay [9]; 56.1 µM in assay [10]; greater than 100 µM in assay [11]; greater than 100 µM in assay [12]. For the same compound, the TGI in assay [13] is greater than 100 µM; in assay [14], greater than 100 µM; in [15], 70.6 µM; in [16] it was greater than 100 µM; in [17] it was greater than 100 µM; in [18] it was greater than 100 µM. Besides, the values for the TGI in [19] and in [20] were greater than 100 µM and 77.9 µM, respectively.
For `CN(C)/C=N/S(=O)(=O)c1nn2c(C=O)c(-c3ccc([N+](=O)[O-])cc3)nc2s1`, the TGI in assay [1] was greater than 81.5 µM; in assay [2], greater than 27.3 µM; in assay [3], greater than 100 µM; in [4] it was greater than 100 µM; in [5], 51.3 µM; in [6], 50.4 µM. For the same compound, the TGI in [7] is greater than 100 µM; in assay [8], greater than 41.6 µM; in [9], greater than 42 µM; in [10], 4.38 µM; in assay [11], greater than 43.4 µM; in [12], 21.6 µM. The TGI in [13] is greater than 32.4 µM; in [14] it was greater than 100 µM; in assay [15], greater than 21.8 µM; in assay [16], 18.3 µM; in assay [17], 58.7 µM; in assay [18] it was 49.7 µM. Further, the TGI in [19] is greater than 100 µM; in [20], 3.85 µM.
On to `O=C(CCO)OCCCCCC/C=C\CCCCCC/C=C\CCCCCCCCOC(=O)CCO`, for which the TGI in assay [1] amounted to 32.5 µM; in assay [2], 30.4 µM; in [3] it was 35.5 µM; in assay [4], 32.9 µM; in assay [5] it was 31 µM; in assay [6], 45.7 µM. Further, the TGI was found to be 32.7 µM in assay [7]; 30 µM in assay [8]; 40.3 µM in assay [9]; 31.5 µM in assay [10]; 30.1 µM in assay [11]; 31.5 µM in assay [12]. The TGI worked out at 30.9 µM in assay [13]; 29.6 µM in assay [14]; 28.6 µM in assay [15]; 37.5 µM in [16]; 32.3 µM in assay [17]; 31.8 µM in [18]. Moreover, the TGI was found to be 50 µM in assay [19] and 32.1 µM in [20].
Turning to `O=C1/C(=C\c2c(-c3ccccc3)nn(-c3ccccc3)c2O)C(c2ccccc2)=NN1c1ccccc1`, the TGI in assay [1], in [2], in assay [3], in [4], in assay [5] and in assay [6] was greater than 100 µM in each case. For the same compound, the TGI in assay [7], in assay [8], in assay [9], in assay [10], in assay [11] and in [12] was greater than 100 µM each time. Moreover, the TGI in assay [13], in assay [14], in assay [15], in assay [16], in [17] and in assay [18] was greater than 100 µM throughout. Further, the TGI in assay [19] and in assay [20] was greater than 100 µM each time.
Regarding `COc1ccc2c(c1)c1c3c(ccc4ncn2c43)N(CCN(C)C)CCN=1`, the TGI in [1] was determined as 1.76 µM; in [2] it was 0.705 µM; in [3], 1.62 µM; in assay [4] it was 1.96 µM; in [5] it was 2.32 µM; in [6], 1.76 µM. The TGI was found to be 1.96 µM in assay [7]; 5.2 µM in [8]; 1.91 µM in [9]; 1.58 µM in assay [10]; 1.35 µM in assay [11]; 5.73 µM in assay [12]. Besides, the TGI in [13] is 2.41 µM; in [14], 2.04 µM; in [15], 1.5 µM; in assay [16], 2.45 µM; in assay [17] it was 2.71 µM; in assay [18] it was 3.59 µM. Also, the values for the TGI in assay [19] and in assay [20] were 2.77 µM and 1.1 µM, respectively.
In the case of `N#CC(c1ccccc1)(c1ccccc1)[C@@H](c1ccccc1)[C@H](Cc1ccccc1)NS(=O)(=O)c1ccccc1`, the TGI in assay [1], in [2], in [3], in assay [4], in [5] and in assay [6] was greater than 100 µM throughout. Further, the TGI in assay [7], in assay [8], in [9], in assay [10], in assay [11] and in assay [12] was greater than 100 µM in each case. Besides, the TGI in [13], in assay [14], in assay [15], in [16], in assay [17] and in assay [18] was greater than 100 µM each time. Besides, the TGI in assay [19] and in assay [20] was greater than 100 µM in each case.
